Experiments:
[1] = Pharmacokinetic study in rats after single oral administration (plasma, LC-MS/MS); assay type: in vivo, male Sprague Dawley rats; settings: 5 mg/kg single oral, male SD rats, mean ± SD; for Vd (apparent volume of distribution) / AUC(0-t) / Cmax / MRT / Tmax / half-life: n = 6; for AUC(0-t) / Cmax / MRT / Tmax / half-life / CL/F: Sprague Dawley, rat; for CL/F: n = 6, read-out: CL (CLz/F)
Method: (§1) Seventy-two male Sprague Dawley rats weighing 180–220 g (7-8 weeks old, Certificate no. SCXK (Shandong) 2014-0007) were supplied by Shandong Laboratory Animal Center, Shandong First Medical University & Shandong Academy of Medical Sciences. All rats were kept in plastic cages with 12 h day/night cycle under controlled temperature (about 23–25°C) and fed with standard laboratory rat diet and water ad libitum. All the animal welfare and experimental procedures were approved by the Animal Ethics Committee at the Institute of Materia Medica, Shandong First Medical University & Shandong Academy of Medical Sciences (Jinan, China) and strictly in accordance with the guide for the care and use of laboratory animals (National Research Council of USA, 1996).
For the pharmacokinetic studies, after fasting with free access to water for at least 12 h, twelve rats were randomly divided into two groups (n = 6). The brigatinib and brigatinib-analog were both dissolved in ethanol-0.5% methylcellulose (1 : 19) for dosing. The two group rats were intragastrically administered with brigatinib and brigatinib-analog at the same dose of 5 mg/kg, respectively.
Blood samples, about 100 μL of each, were placed in heparinized Eppendorf tubes predose and at 5, 15, 30, 60, 120, 180, 240, 300, 360, 480, 720, and 1,440 min postdose from the jugular vein of rats. The blood samples were immediately centrifuged at 3,500 rpm for 15 min at 4°C, and the plasma samples were transferred carefully from each collection and stored at −20°C until analysis.
(§2) Experimental data were expressed as mean ± standard deviation (SD). Drug and Statistics 2.0 (DAS 2.0) software package (Mathematical Pharmacology Professional Committee of China, Shanghai, China) was used for estimating pharmacokinetic and brain distribution parameters by a noncompartmental method. Statistical analyses were performed with statistical software IBM SPSS Statistics 20.0 (IBM Corporation, Armonk, NY, USA). Differences between two groups were evaluated by the t-test. A value of p < 0.05 was considered as statistically significant.

[2] = Brain distribution study in rats after single oral administration (brain homogenate, LC-MS/MS); assay type: in vivo, male Sprague Dawley rats; settings: for blood-brain barrier penetration / Kp: 5 mg/kg oral, rats; for Cmax / MRT / Tmax / half-life / Kp: Sprague Dawley, rat; for Cmax / MRT / Tmax / half-life / AUC(0–t): brain, 5 mg/kg single oral, male SD rats, mean ± SD, n = 6; for Kp: male, average AUC(0–t) brain to plasma, 1 g brain taken as 1 mL plasma, read-out: ratio of AUCbrain/AUCplasma
Method: as §1
For the brain distribution studies, the remaining sixty rats were randomly divided into ten groups (n = 6, per group). The distributions of brigatinib and brigatinib-analog in the rat brain were also investigated at the dose of 5 mg/kg after single oral administration to rats. The whole brain was excised immediately at 5, 60, 240, 480, and 1,440 min postdose, thoroughly rinsed with 0.9% saline solution, and wiped with a filter paper. Each brain sample was weighed accurately and homogenized in double distilled water (1 : 5, w/v) by using a tissue homogenizer (IKA, Germany) and frozen at −20°C until analysis.
as §2

[3] = Stability of QC samples in rat plasma under various storage conditions; assay type: in vitro ADME; settings: for Stability under the storage conditions investigated: rat plasma and brain homogenate QC samples, 6 h ambient, −20°C 10 d, three freeze-thaw cycles, 24 h at 4°C autosampler; for Measured conc. after ambient temperature for 6 h / Measured conc. after autosampler at 4°C for 24 h / Measured conc. after three freeze-thaw cycles / Measured conc. after −20°C for 10 d: rat plasma, n = 6
Method: (§3) The stability of brigatinib and brigatinib-analog was evaluated by analysis of low and high concentration levels of QC samples under different conditions (n = 6). The temperature and timing conditions were as follows: 6 h at ambient temperature, stored at −20°C for 10 d, three freeze-thaw cycles, and 24 h at 4°C in an autosampler. The measured concentrations were all within acceptable limits (±15% of the nominal concentrations) during the entire validation. […] Carryover was evaluated by determining the peak areas for brigatinib and brigatinib-analog by injecting blank matrix samples sequentially after the highest calibration standard sample injection. Furthermore, no carryover effect was obtained in this study.

[4] = Stability of QC samples in rat brain homogenate under various storage conditions; assay type: in vitro ADME; settings: n = 6
Method: as §3

[5] = system: the triple mutation; set-up: method as in PMID 28287083, PMID 27780853; settings: read-out: IC50 against the triple mutation; cited from earlier work

SMILES | Vd (apparent volume of distribution) [1] [L/kg] | AUC(0-t) [1] [ng·h/mL] | Cmax [1] [ng/mL] | MRT [1] [h] | Tmax [1] [h] | half-life [1] [h] | CL/F [1] [mL/min/kg] | blood-brain barrier penetration [2] | Cmax [2] [ng/g] | MRT [2] [h] | Tmax [2] [h] | half-life [2] [h] | AUC(0–t) [2] | Kp [2] | Stability under the storage conditions investigated [3] | Measured conc. after ambient temperature for 6 h ([3]; spiked 2.0 ng/mL) [ng/mL] | Measured conc. after autosampler at 4°C for 24 h ([3]; spiked 2.0 ng/mL) [ng/mL] | Measured conc. after three freeze-thaw cycles ([3]; spiked 2.0 ng/mL) [ng/mL] | Measured conc. after −20°C for 10 d ([3]; spiked 2.0 ng/mL) [ng/mL] | Measured conc. after ambient temperature for 6 h ([3]; spiked 1600 ng/mL) [ng/mL] | also measured
COc1cc(N2CCC(N(C)C)CC2)ccc1Nc1ncc(Cl)c(Nc2ccccc2P(C)(C)=O)n1 [Brigatinib-analog] | 3.43 ± 0.96 | 4370 | 734 ± 83.1 | 5.48 | 4.33 | 2.01 ± 0.496 | 21 ± 6 | could both penetrate the blood-brain barrier | 45.8 ± 11.8 | 6.32 | 4 | 4.27 ± 0.667 | 23196.08 ± 4932.95^∗ ng/g·min | 0.088 | stable | 2.03 ± 0.11 | 1.89 ± 0.12 | 2.01 ± 0.09 | 1.95 ± 0.12 | 1638.54 ± 97.76 | Measured conc. after autosampler at 4°C for 24 h ([3]; spiked 1600 ng/mL): 1582.61 ± 101.88 ng/mL; Measured conc. after three freeze-thaw cycles ([3]; spiked 1600 ng/mL): 1578.36 ± 125.20 ng/mL; Measured conc. after −20°C for 10 d ([3]; spiked 1600 ng/mL): 1705.49 ± 109.83 ng/mL; Measured conc. after ambient temperature for 6 h ([4]; spiked 1.0 ng/mL): 1.04 ± 0.05 ng/mL; Measured conc. after autosampler at 4°C for 24 h ([4]; spiked 1.0 ng/mL): 0.97 ± 0.06 ng/mL; Measured conc. after three freeze-thaw cycles ([4]; spiked 1.0 ng/mL): 0.98 ± 0.07 ng/mL; Measured conc. after −20°C for 10 d ([4]; spiked 1.0 ng/mL): 1.07 ± 0.11 ng/mL; Measured conc. after ambient temperature for 6 h ([4]; spiked 800 ng/mL): 828.64 ± 66.54 ng/mL; Measured conc. after autosampler at 4°C for 24 h ([4]; spiked 800 ng/mL): 783.28 ± 32.39 ng/mL; Measured conc. after three freeze-thaw cycles ([4]; spiked 800 ng/mL): 833.68 ± 56.59 ng/mL; Measured conc. after −20°C for 10 d ([4]; spiked 800 ng/mL): 846.09 ± 53.83 ng/mL; IC50 [5]: < 100 nM
COc1cc(N2CCC(N3CCN(C)CC3)CC2)ccc1Nc1ncc(Cl)c(Nc2ccccc2P(C)(C)=O)n1 [Brigatinib] | 5.66 ± 1.94 | 4360 | 538 ± 186 | 6.73 | 4.33 | 3.16 ± 0.343 | 22 ± 10 | could both penetrate the blood-brain barrier | 68.9 ± 21.6 | 7.48 | 5.5 | 5.32 ± 1.95 | 58255.81 ± 13725.10 ng·min/g | 0.223 | stable | 2.10 ± 0.12 | 1.90 ± 0.10 | 1.94 ± 0.09 | 2.05 ± 0.17 | 1585.06 ± 98.31 | Measured conc. after autosampler at 4°C for 24 h ([3]; spiked 1600 ng/mL): 1645.17 ± 118.52 ng/mL; Measured conc. after three freeze-thaw cycles ([3]; spiked 1600 ng/mL): 1678.34 ± 95.87 ng/mL; Measured conc. after −20°C for 10 d ([3]; spiked 1600 ng/mL): 1719.73 ± 107.09 ng/mL; Measured conc. after ambient temperature for 6 h ([4]; spiked 1.0 ng/mL): 1.06 ± 0.08 ng/mL; Measured conc. after autosampler at 4°C for 24 h ([4]; spiked 1.0 ng/mL): 0.96 ± 0.05 ng/mL; Measured conc. after three freeze-thaw cycles ([4]; spiked 1.0 ng/mL): 1.02 ± 0.06 ng/mL; Measured conc. after −20°C for 10 d ([4]; spiked 1.0 ng/mL): 0.97 ± 0.06 ng/mL; Measured conc. after ambient temperature for 6 h ([4]; spiked 800 ng/mL): 788.85 ± 69.25 ng/mL; Measured conc. after autosampler at 4°C for 24 h ([4]; spiked 800 ng/mL): 813.16 ± 72.23 ng/mL; Measured conc. after three freeze-thaw cycles ([4]; spiked 800 ng/mL): 847.44 ± 57.65 ng/mL; Measured conc. after −20°C for 10 d ([4]; spiked 800 ng/mL): 760.29 ± 48.33 ng/mL; IC50 [5]: < 100 nM

— article PMC6915135, “Simultaneous Quantification of Brigatinib and Brigatinib-Analog in Rat Plasma and Brain Homogenate by LC-MS/MS: Application to Comparative Pharmacokinetic and Brain Distribution Studies” (International Journal of Analytical Chemistry, 2019)
